Test results as given in PubChem BioAssay (NCI).
Values joined by “and” are separate entries in the source; they are usually repeats but may differ in a detail not shown here. Identical values can stand only once.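 Five concentrations, 48 hours, 96-well plates. Abbreviation: GI50, concentration required for 50% inhibition of growth. TGI marks complete inhibition of growth.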

Columns and labels:
Test in all cases: DTP human tumour cell line panel, 48 h
[1] = system: NCI-H522 lung
[2] = system: HCT-15 colon
[3] = system: OVCAR-5 ovarian
[4] = system: SNB-75 CNS
[5] = system: MALME-3M melanoma
[6] = system: ACHN renal
[7] = system: SNB-19 CNS
[8] = system: HCT-116 colon
[9] = system: U251 CNS
[10] = system: OVCAR-4 ovarian
[11] = system: SW-620 colon
[12] = system: CCRF-CEM leukemia
[13] = system: MDA-N
[14] = system: SK-OV-3 ovarian
[15] = system: SN12C renal
[16] = system: IGROV1 ovarian
[17] = system: UO-31 renal
[18] = system: HT29 colon
[19] = system: DU-145 prostate
[20] = system: HCC-2998 colon
[21] = system: KM12 colon
[22] = system: DMS 273 small cell lung
[23] = system: M19-MEL melanoma
[24] = system: SF-295 CNS
[25] = system: DMS 114 small cell lung
[26] = system: MDA-MB-435
[27] = system: MDA-MB-231 breast
[28] = system: M14 melanoma
[29] = system: DLD-1 colon
[30] = system: NCI-H23 lung
[31] = system: BT-549 breast
[32] = system: CAKI-1 renal
[33] = system: SNB-78 CNS
[34] = system: SK-MEL-28 melanoma
[35] = system: EKVX NSCLC
[36] = system: MOLT-4 leukemia
[37] = system: HS 578T breast
[38] = system: PC-3 prostate
[39] = system: RXF 393 renal
[40] = system: 786-0 renal
[41] = system: UACC-257 melanoma
[42] = system: HL-60(TB) leukemia
[43] = system: LXFL 529 NSCLC
[44] = system: HOP-18 NSCLC
[45] = system: OVCAR-3 ovarian
[46] = system: COLO 205 colon
[47] = system: LOX IMVI melanoma
[48] = system: HOP-92 NSCLC
[49] = system: SK-MEL-2 melanoma
[50] = system: UACC-62 melanoma
[51] = system: NCI-H460 lung
[52] = system: NCI-H226 lung
[53] = system: OVCAR-8 ovarian
[54] = system: XF 498 CNS
[55] = system: MCF7 breast
[56] = system: KM20L2 colon
[57] = system: SR leukemia
[58] = system: RPMI-8226 leukemia
[59] = system: HOP-62 NSCLC
[60] = system: SF-539 CNS
[61] = system: K-562 leukemia
[62] = system: T-47D breast
[63] = system: SF-268 CNS
[64] = system: A549 NSCLC
[65] = system: TK-10 renal
[66] = system: SK-MEL-5 melanoma
[67] = system: A498 renal
[68] = system: RXF-631 renal

## Cc1nc2c(o1)C(=O)c1ccccc1C2=Nc1ccccc1
[1]
  GI50: 3.21 µM
  TGI: 7.81 µM and 4.27 µM
[2]
  GI50: 3.17 µM
  TGI: 7.63 µM
[3]
  TGI: 11.8 µM
[4]
  TGI: 3.94 µM and 3.81 µM
[5]
  GI50: 1.69 µM
  TGI: 3.06 µM and 2.66 µM
[6]
  GI50: 4.72 µM
  TGI: > 37.7 µM
[7]
  GI50: 11 µM
  TGI: 23 µM
[8]
  GI50: 3.35 µM
  TGI: 5.77 µM
[9]
  TGI: 3.12 µM and 3.7 µM
[10]
  GI50: 2.15 µM
  TGI: 6.5 µM and 5.86 µM
[11]
  GI50: 3.6 µM
  TGI: 7.86 µM
[12]
  GI50: 4.61 µM
  TGI: > 65.8 µM
[13]
  TGI: 0.959 µM
[14]
  TGI: 31.2 µM
[15]
  GI50: 2.99 µM
  TGI: 7.38 µM and 6.18 µM
[16]
  TGI: 20.6 µM
[17]
  GI50: 3.66 µM
  TGI: 7.62 µM
[18]
  TGI: 33.3 µM
[19]
  TGI: 3.33 µM
[20]
  TGI: 28.5 µM
[21]
  TGI: 14.4 µM
[22]
  TGI: 6.1 µM
[23]
  GI50: 1.55 µM
  TGI: 3.24 µM and 2.97 µM
[24]
  GI50: 1.95 µM
  TGI: 3.88 µM
[25]
  GI50: 1.78 µM
  TGI: 2.89 µM and 3.69 µM
[26]
  TGI: 1.09 µM
[27]
  TGI: 18.5 µM
[28]
  GI50: 1.64 µM
  TGI: 3 µM and 2.11 µM
[29]
  TGI: 29.2 µM
[30]
  GI50: 2.31 µM
  TGI: 6.17 µM and 6.48 µM
[31]
  TGI: 3.13 µM
[32]
  TGI: 32 µM
[33]
  TGI: 9.13 µM
[34]
  TGI: 3.91 µM
[35]
  GI50: 7.57 µM
  TGI: > 31.6 µM
[36]
  GI50: 4.55 µM and 4.44 µM
  TGI: 34.5 µM
[37]
  TGI: 5.38 µM
[38]
  TGI: 6.51 µM
[39]
  TGI: 3.3 µM
[40]
  TGI: > 55.8 µM
[41]
  TGI: 5.46 µM and 4.39 µM
[42]
  GI50: 3.04 µM
  TGI: 11.6 µM
[43]
  TGI: 12.3 µM
[44]
  GI50: 4.27 µM
  TGI: 3.39 µM and 10.1 µM
[45]
  GI50: 2.5 µM
  TGI: 4.52 µM and 8.04 µM
[46]
  TGI: 27.1 µM
[47]
  TGI: 5.2 µM
[48]
  TGI: 6.07 µM
[49]
  GI50: 3.62 µM
  TGI: 2.95 µM
[50]
  GI50: 2.07 µM
  TGI: 3.84 µM and 6.7 µM
[51]
  TGI: 12.3 µM
[52]
  TGI: 31.9 µM
[53]
  GI50: 4.16 µM
  TGI: 9.66 µM
[54]
  TGI: 7.69 µM and 6.99 µM
[55]
  TGI: 5.47 µM
[56]
  TGI: 42 µM
[57]
  TGI: > 93.5 µM
[58]
  GI50: 4.43 µM
  TGI: 11.1 µM
[59]
  TGI: 6.05 µM
[60]
  GI50: 1.96 µM
  TGI: 3.66 µM and 5.95 µM
[61]
  GI50: 4.28 µM
  TGI: > 37.4 µM
[62]
  TGI: 7.65 µM
[63]
  GI50: 3.11 µM
  TGI: > 31.6 µM
[64]
  GI50: 13.2 µM
  TGI: 32.3 µM
[65]
  TGI: 41.9 µM
[66]
  GI50: 1.73 µM
  TGI: 3.1 µM and 2.72 µM

## Cc1ccc(NC(=O)SCCC(=O)O)cc1
[1]
  TGI: > 100 µM
[2]
  TGI: > 100 µM
[3]
  TGI: > 100 µM
[4]
  TGI: 66.7 µM
[6]
  TGI: > 100 µM
[7]
  TGI: > 100 µM
[8]
  TGI: > 100 µM
[9]
  TGI: > 100 µM
[10]
  TGI: > 100 µM
[11]
  TGI: > 100 µM
[12]
  TGI: > 100 µM
[15]
  TGI: > 100 µM
[16]
  TGI: > 100 µM
[17]
  TGI: > 100 µM
[18]
  TGI: > 100 µM
[20]
  TGI: > 100 µM
[21]
  TGI: > 100 µM
[22]
  TGI: > 100 µM
[24]
  TGI: > 100 µM
[25]
  TGI: > 100 µM
[28]
  TGI: > 100 µM
[29]
  TGI: > 100 µM
[30]
  TGI: > 100 µM
[32]
  TGI: > 100 µM
[33]
  TGI: > 100 µM
[34]
  TGI: > 100 µM
[35]
  TGI: > 100 µM
[36]
  TGI: > 100 µM
[39]
  TGI: > 100 µM
[40]
  TGI: > 100 µM
[41]
  TGI: > 100 µM
[42]
  TGI: > 100 µM
[43]
  TGI: > 100 µM
[45]
  TGI: > 100 µM
[46]
  TGI: > 100 µM
[67]
  TGI: > 100 µM
[47]
  TGI: > 100 µM
[49]
  TGI: > 100 µM
[50]
  TGI: > 100 µM
[51]
  TGI: > 100 µM
[68]
  TGI: > 100 µM
[52]
  TGI: > 100 µM
[53]
  TGI: > 100 µM
[56]
  TGI: > 100 µM
[57]
  TGI: > 100 µM
[58]
  TGI: > 100 µM
[59]
  TGI: > 100 µM
[60]
  TGI: > 100 µM
[61]
  TGI: > 100 µM
[63]
  TGI: 94.9 µM
[64]
  TGI: > 100 µM
[65]
  TGI: > 100 µM
